This is an account of results in US20090062294A1, “HETEROARYL-SUBSTITUTED UREA MODULATORS OF FATTY ACID AMIDE HYDROLASE” (priority 2007, published 2009).

Structures are written as SMILES. Where a name gives a salt, the structure may show the parent alone.

One test addresses T1, FAAH (Homo sapiens, UniProt O00519).
T1 sequence (O00519 1-579): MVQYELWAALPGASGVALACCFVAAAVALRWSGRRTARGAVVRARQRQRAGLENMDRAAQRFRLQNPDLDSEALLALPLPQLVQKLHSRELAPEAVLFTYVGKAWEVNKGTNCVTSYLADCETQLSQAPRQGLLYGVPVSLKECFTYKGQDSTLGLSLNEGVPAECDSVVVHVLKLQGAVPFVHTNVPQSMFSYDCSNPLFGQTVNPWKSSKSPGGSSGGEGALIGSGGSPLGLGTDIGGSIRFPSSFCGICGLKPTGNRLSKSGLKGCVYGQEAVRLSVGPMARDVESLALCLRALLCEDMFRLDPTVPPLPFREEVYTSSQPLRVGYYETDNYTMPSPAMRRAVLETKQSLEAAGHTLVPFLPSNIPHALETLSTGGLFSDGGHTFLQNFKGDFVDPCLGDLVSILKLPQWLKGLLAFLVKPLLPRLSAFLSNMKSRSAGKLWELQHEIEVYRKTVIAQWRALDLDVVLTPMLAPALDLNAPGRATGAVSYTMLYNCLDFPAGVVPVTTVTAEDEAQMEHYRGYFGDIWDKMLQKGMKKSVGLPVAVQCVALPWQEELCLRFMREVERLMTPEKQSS
Nature of the test: Assay Method 1: FAAH assay, 3H-anandamide hydrolysis in homogenate of T84 cells or SK-N-MC cells transfected with human FAAH. Format: biochemical. The settings on record: average of results, > = solubility limit or highest concentration tested. Here is the method:
A. Transfection of Cells with Human FAAH
(§1) A 10-cm tissue culture dish with a confluent monolayer of SK—N-MC cells was split 2 days (d) prior to transfection. Using sterile technique, the media was removed and the cells were detached from the dish by the addition of trypsin. One fifth of the cells were then placed onto a new 10-cm dish. Cells were grown in a 37° C. incubator with 5% CO2 in Minimal Essential Media Eagle with 10% Fetal Bovine Serum. After 2 d, cells were approximately 80% confluent. These cells were removed from the dish with trypsin and pelleted in a clinical centrifuge. The pellet was re-suspended in 400 μL complete media and transferred to an electroporation cuvette with a 0.4 cm gap between the electrodes. Supercoiled human FAAH cDNA (1 μg) was added to the cells and mixed. The voltage for the electroporation was set at 0.25 kV, and the capacitance was set at 960 μF. After electroporation, the cells were diluted into complete media (10 mL) and plated onto four 10-cm dishes. Because of the variability in the efficiency of electroporation, four different concentrations of cells were plated. The ratios used were 1:20, 1:10, and 1:5, with the remainder of the cells being added to the fourth dish. The cells were allowed to recover for 24 h before adding the selection media (complete media with 600 μg/mL G418). After 10 d, dishes were analyzed for surviving colonies of cells. Dishes with well-isolated colonies were used. Cells from individual colonies were isolated and tested.
(§2) T84 frozen cell pellets or transfected SK—N-MC cells (contents of 1×15 cm culture dishes) were homogenized in 50 mL of FAAH assay buffer (125 mM Tris, 1 mM EDTA, 0.2% Glycerol, 0.02% Triton X-100, 0.4 mM Hepes, pH 9). The assay mixture consisted of 50 μL of the cell homogenate, 10 μL of the test compound, and 40 μL of anandamide [1-^3H-ethanolamine] (^3H-AEA, Perkin-Elmer, 10.3 Ci/mmol), which was added last, for a final tracer concentration of 80 nM. The reaction mixture was incubated at rt for 1 h. During the incubation, 96-well Multiscreen filter plates (catalog number MAFCNOB50; Millipore, Bedford, Mass., USA) were loaded with 25 μL of activated charcoal (Multiscreen column loader, catalog number MACL09625, Millipore) and washed once with 100 μL of MeOH. Also during the incubation, 96-well DYNEX MicroLite plates (catalog number NL510410) were loaded with 100 μL of MicroScint40 (catalog number 6013641, Packard Bioscience, Meriden, Conn., USA). After the 1 h incubation, 60 μL of the reaction mixture were transferred to the charcoal plates, which were then assembled on top of the DYNEX plates using Centrifuge Alignment Frames (catalog number MACF09604, Millipore). The unbound labeled ethanolamine was centrifuged through to the bottom plate (5 min at 2000 rpm), which was preloaded with the scintillant, as described above. The plates were sealed and left at rt for 1 h before counting on a Hewlett Packard TopCount.
(§3) Compounds were tested in free base, hydrochloride salt, and/or trifluoroacetic acid salt forms.

The next test addresses T2, rat FAAH (Rattus norvegicus, UniProt P97612).
T2 sequence (P97612 1-579): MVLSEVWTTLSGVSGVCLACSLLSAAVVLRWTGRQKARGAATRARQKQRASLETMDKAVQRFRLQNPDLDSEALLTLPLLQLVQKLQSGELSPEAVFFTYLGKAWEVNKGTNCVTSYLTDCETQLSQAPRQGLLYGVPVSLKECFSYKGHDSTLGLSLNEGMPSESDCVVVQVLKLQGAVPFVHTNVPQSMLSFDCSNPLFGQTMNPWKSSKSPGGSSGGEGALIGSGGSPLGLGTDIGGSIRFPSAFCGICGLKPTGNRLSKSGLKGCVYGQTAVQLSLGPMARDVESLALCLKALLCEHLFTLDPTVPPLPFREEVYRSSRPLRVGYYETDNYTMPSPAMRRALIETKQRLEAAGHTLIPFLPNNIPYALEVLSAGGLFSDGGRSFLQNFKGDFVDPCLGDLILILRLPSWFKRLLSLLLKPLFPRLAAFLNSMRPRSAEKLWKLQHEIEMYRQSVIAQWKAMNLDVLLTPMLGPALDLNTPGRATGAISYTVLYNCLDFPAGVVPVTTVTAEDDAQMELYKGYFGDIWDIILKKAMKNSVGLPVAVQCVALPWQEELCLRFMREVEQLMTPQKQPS
Nature of the test: Assay Method 2: FAAH assay, 3H-anandamide hydrolysis in homogenate of SK-N-MC cells transfected with rat FAAH. The test is classed as biochemical. Particulars: average of results, > = solubility limit or highest concentration tested. Here is the method: A. Transfection of Cells with Rat FAAH
as §1, with “rat” for “human”
as §2, §3

For `O=C(Nc1cccc2nsnc12)N1CCN(Cc2ccc3c(c2)OC(F)(F)O3)CC1` [Example 4, 4-(2,2-Difluoro-benzo[1,3]dioxol-5-ylmethyl)-piperazine-1-carboxylic acid benzo[1,2,5]thiadiazol-4-ylamide trifluoroacetic acid salt], the IC50 turned out to be 59 nM on FAAH and 260 nM on rat FAAH.
`O=C(Nc1cccc2nonc12)N1CCN(Cc2ccc3c(c2)OC(F)(F)O3)CC1` [Example 5, 4-(2,2-Difluoro-benzo[1,3]dioxol-5-ylmethyl)-piperazine-1-carboxylic acid benzo[1,2,5]oxadiazol-4-ylamide trifluoroacetic acid salt]: the IC50 is 170 nM at FAAH and 1200 nM on rat FAAH.
Consider `O=C(Nc1ccc2nn[nH]c2c1)N1CCN(Cc2ccc3c(c2)OC(F)(F)O3)CC1` [Example 6, 4-(2,2-Difluoro-benzo[1,3]dioxol-5-ylmethyl)-piperazine-1-carboxylic acid (3H-benzotriazol-5-yl)-amide trifluoroacetic acid salt], for which the results for the IC50 on FAAH and against rat FAAH were 308 nM and 352 nM, respectively.
As to `O=C(Nc1cccs1)N1CCN(Cc2ccc3c(c2)OC(F)(F)O3)CC1` [Example 7, 4-(2,2-Difluoro-benzo[1,3]dioxol-5-ylmethyl)-piperazine-1-carboxylic acid thiophen-2-ylamide], the IC50 on FAAH is 2000 nM; against rat FAAH, 2400 nM.
For the compound `O=C(Nc1ccsc1)N1CCN(Cc2ccc3c(c2)OC(F)(F)O3)CC1` [Example 8, 4-(2,2-Difluoro-benzo[1,3]dioxol-5-ylmethyl)-piperazine-1-carboxylic acid thiophen-3-ylamide], the IC50 is 770 nM against FAAH and 290 nM on rat FAAH.
For the compound `O=C(Nc1ccc(Cl)nn1)N1CCC(Cc2ccc3ccccc3c2)CC1` [Example 9, 4-Naphthalen-2-ylmethyl-piperidine-1-carboxylic acid (6-chloro-pyridazin-3-yl)-amide], the IC50 at FAAH was found to be 552 nM; against rat FAAH, 57 nM.
The matching figures for `O=C(Nc1cnccn1)N1CCC(Cc2ccc3ccccc3c2)CC1` [Example 10, 4-Naphthalen-2-ylmethyl-piperidine-1-carboxylic acid pyrazin-2-ylamide trifluoroacetic acid salt]: 244 nM and 36 nM.
Consider `O=C(Nc1ccon1)N1CCC(Cc2ccc3ccccc3c2)CC1` [Example 11, 4-Naphthalen-2-ylmethyl-piperidine-1-carboxylic acid isoxazol-3-ylamide], for which the results for the IC50 against FAAH and on rat FAAH were 1000 nM and 170 nM, respectively.
Turning to `O=C(Nc1nc(-c2ccccc2)ns1)N1CCC(Cc2ccc3ccccc3c2)CC1` [Example 12, 4-Naphthalen-2-ylmethyl-piperidine-1-carboxylic acid (3-phenyl-[1,2,4]thiadiazol-5-yl)-amide], the IC50 at FAAH turned out to be 5000 nM; at rat FAAH, 3000 nM.
As for `O=C(Nc1nnn[nH]1)N1CCC(Cc2ccc3ccccc3c2)CC1` [Example 13, 4-Naphthalen-2-ylmethyl-piperidine-1-carboxylic acid (1H-tetrazol-5-yl)-amide], the values for the IC50 at FAAH and against rat FAAH were 5 nM and 87 nM, respectively.
Turning to `O=C(Nc1ccn[nH]1)N1CCC(Cc2ccc3ccccc3c2)CC1` [Example 14, 4-Naphthalen-2-ylmethyl-piperidine-1-carboxylic acid (2H-pyrazol-3-yl)-amide], the figures for the IC50 at FAAH and at rat FAAH were 218 nM and 63 nM, respectively.
The matching figures for `O=C(Nc1cccc2nonc12)N1CCC(Cc2ccc3ccccc3c2)CC1` [Example 15, 4-Naphthalen-2-ylmethyl-piperidine-1-carboxylic acid benzo[1,2,5]oxadiazol-4-ylamide]: 59 nM and 23 nM.
The matching figures for `O=C(Nc1ccc2[nH]nnc2c1)N1CCC(Cc2ccc3ccccc3c2)CC1` [Example 16, 4-Naphthalen-2-ylmethyl-piperidine-1-carboxylic acid (1H-benzotriazol-5-yl)-amide]: 39 nM and 5 nM.
For `O=C(Nc1ccc2ccccc2n1)N1CCC(Cc2ccc3ccccc3c2)CC1` [Example 18, 4-Naphthalen-2-ylmethyl-piperidine-1-carboxylic acid quinolin-2-ylamide trifluoroacetic acid salt], the values for the IC50 at FAAH and on rat FAAH were > 10000 nM and 9000 nM, respectively.
Take `O=C(Nc1ccc2ncsc2c1)N1CCC(Cc2ccc3ccccc3c2)CC1` [Example 19, 4-Naphthalen-2-ylmethyl-piperidine-1-carboxylic acid benzothiazol-6-ylamide]: the IC50 against FAAH was determined as 1500 nM; against rat FAAH, 55 nM.
In the case of `O=C(Nc1cccc2ncccc12)N1CCC(Cc2ccc3ccccc3c2)CC1` [Example 20, 4-Naphthalen-2-ylmethyl-piperidine-1-carboxylic acid quinolin-5-ylamide trifluoroacetic acid salt], the values for the IC50 against FAAH and at rat FAAH were 935 nM and 250 nM, respectively.
As to `O=C(Nc1noc2ccccc12)N1CCC(Cc2ccc3ccccc3c2)CC1` [Example 21, 4-Naphthalen-2-ylmethyl-piperidine-1-carboxylic acid benzo[d]isoxazol-3-ylamide], the IC50 against FAAH was determined as 43 nM; against rat FAAH, 7 nM.
For `O=C(Nc1noc2ccccc12)N1CCC(Cc2ccc(F)cc2)CC1` [Example 22, 4-(4-Fluoro-benzyl)-piperidine-1-carboxylic acid benzo[d]isoxazol-3-ylamide], the IC50 is 108 nM at FAAH and 77 nM on rat FAAH.
